Paper PMC6199744, “Development of Chemical Proteomics for the Folateome and Analysis of the Kinetoplastid Folateome” (ACS Infectious Diseases, 2018)
Like-named read-outs stand apart in the source and are kept apart here.

Assays:
Format in all cases: binding
[1] = target: T1, HeLa cell extract proteins (Homo sapiens, UniProt P52948)
T1 construct: endogenous in cells; host or cells: HeLa cell extract

[2] = target: T2, HeLa cell extract proteins (Homo sapiens, UniProt P31327)
T2 construct: endogenous in cells; host or cells: HeLa cell extract
T2 sequence (P31327 39-1500): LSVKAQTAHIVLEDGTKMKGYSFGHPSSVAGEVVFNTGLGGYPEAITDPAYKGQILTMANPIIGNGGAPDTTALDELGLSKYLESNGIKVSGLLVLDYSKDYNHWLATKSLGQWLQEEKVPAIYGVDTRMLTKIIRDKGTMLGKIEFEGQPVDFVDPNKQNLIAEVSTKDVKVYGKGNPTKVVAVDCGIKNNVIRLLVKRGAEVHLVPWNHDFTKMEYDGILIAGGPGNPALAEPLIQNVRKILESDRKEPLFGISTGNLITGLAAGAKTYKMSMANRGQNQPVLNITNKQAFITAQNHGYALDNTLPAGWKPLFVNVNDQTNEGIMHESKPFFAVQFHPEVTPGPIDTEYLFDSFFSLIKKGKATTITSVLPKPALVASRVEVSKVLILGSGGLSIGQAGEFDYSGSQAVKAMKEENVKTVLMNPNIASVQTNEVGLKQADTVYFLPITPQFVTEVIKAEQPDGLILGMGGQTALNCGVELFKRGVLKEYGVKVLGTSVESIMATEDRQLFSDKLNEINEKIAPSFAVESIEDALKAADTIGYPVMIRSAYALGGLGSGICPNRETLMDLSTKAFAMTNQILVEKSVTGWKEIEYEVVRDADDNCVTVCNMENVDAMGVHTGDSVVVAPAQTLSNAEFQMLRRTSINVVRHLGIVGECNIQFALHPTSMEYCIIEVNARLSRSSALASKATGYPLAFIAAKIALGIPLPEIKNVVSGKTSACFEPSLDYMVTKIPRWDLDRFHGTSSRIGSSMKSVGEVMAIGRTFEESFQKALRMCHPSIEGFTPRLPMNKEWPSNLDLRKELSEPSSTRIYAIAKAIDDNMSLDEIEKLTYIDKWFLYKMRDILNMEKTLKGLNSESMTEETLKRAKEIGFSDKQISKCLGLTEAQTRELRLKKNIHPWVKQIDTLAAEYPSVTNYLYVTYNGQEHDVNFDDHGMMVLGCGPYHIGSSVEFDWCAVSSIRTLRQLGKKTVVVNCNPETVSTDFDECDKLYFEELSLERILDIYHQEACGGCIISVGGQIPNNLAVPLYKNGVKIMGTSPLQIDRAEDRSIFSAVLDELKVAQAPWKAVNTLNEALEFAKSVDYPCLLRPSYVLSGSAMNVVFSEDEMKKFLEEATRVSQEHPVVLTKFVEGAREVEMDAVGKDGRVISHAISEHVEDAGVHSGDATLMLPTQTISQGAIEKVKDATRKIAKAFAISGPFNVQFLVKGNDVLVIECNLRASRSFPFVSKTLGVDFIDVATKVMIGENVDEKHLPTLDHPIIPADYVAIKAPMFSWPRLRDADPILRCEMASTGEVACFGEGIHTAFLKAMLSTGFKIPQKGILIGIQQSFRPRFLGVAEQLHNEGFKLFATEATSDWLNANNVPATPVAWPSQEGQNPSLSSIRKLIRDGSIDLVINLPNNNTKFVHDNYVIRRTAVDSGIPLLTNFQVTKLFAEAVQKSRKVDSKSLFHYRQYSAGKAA

[3] = target: T3, HeLa cell extract proteins (Homo sapiens, UniProt Q96P70)
T3 construct: endogenous in cells; host or cells: HeLa cell extract

[4] = target: T4, HeLa cell extract proteins (Homo sapiens, UniProt Q03519)
T4 construct: endogenous in cells; host or cells: HeLa cell extract
T4 sequence (Q03519 1-686): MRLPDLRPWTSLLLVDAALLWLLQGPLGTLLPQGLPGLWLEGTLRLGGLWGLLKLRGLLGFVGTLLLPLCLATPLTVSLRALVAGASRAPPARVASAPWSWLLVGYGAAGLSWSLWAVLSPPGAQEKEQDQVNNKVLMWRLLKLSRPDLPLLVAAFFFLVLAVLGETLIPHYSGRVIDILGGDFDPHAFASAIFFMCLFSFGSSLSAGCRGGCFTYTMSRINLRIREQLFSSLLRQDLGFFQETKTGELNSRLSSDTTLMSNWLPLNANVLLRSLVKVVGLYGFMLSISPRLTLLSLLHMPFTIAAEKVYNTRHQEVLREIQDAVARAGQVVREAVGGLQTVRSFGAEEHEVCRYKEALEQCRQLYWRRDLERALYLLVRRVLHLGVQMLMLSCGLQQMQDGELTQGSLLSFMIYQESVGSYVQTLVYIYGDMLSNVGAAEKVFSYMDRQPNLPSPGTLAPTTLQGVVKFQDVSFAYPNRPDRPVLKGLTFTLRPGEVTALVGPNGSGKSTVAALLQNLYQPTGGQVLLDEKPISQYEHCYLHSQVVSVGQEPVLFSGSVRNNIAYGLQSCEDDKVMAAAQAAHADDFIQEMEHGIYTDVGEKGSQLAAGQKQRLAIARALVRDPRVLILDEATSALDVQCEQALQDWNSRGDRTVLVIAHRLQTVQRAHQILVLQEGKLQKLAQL

[5] = target: T5, HeLa cell extract proteins (Homo sapiens, UniProt P30086)
T5 construct: endogenous in cells; host or cells: HeLa cell extract

[6] = target: T6, HeLa cell extract proteins (Homo sapiens, UniProt O00764)
T6 construct: endogenous in cells; host or cells: HeLa cell extract
T6 sequence (O00764 1-312): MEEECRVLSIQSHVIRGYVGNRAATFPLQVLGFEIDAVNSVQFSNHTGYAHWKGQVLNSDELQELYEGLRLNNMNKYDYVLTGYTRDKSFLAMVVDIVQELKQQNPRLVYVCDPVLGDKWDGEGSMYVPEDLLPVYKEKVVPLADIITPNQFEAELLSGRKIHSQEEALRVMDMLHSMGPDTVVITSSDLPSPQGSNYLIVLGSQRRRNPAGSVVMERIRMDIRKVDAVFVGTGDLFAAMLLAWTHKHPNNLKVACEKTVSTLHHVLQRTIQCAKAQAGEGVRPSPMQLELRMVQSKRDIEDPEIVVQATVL

[7] = target: T7, HeLa cell extract proteins (Homo sapiens, UniProt O43143)
T7 construct: endogenous in cells; host or cells: HeLa cell extract
T7 sequence (O43143 whole entry): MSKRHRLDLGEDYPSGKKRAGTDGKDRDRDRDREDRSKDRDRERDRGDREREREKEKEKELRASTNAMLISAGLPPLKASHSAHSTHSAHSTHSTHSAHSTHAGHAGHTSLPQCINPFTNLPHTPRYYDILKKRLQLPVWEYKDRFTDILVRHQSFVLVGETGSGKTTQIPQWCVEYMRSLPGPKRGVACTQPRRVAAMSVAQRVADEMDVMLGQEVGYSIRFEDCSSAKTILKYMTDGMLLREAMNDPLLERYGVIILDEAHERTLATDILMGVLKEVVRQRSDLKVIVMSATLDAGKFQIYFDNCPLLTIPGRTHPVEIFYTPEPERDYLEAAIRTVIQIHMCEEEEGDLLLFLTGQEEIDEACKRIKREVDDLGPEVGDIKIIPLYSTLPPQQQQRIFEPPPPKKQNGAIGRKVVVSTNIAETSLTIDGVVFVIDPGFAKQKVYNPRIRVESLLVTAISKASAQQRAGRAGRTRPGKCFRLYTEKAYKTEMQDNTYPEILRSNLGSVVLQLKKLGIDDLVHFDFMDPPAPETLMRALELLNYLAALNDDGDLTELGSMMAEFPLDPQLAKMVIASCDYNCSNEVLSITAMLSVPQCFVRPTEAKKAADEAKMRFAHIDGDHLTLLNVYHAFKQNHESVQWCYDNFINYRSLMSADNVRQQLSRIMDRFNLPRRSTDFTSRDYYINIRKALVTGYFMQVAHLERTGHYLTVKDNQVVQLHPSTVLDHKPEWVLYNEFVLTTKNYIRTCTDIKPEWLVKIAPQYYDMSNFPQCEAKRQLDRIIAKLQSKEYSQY

T1 sequence (P52948 whole entry): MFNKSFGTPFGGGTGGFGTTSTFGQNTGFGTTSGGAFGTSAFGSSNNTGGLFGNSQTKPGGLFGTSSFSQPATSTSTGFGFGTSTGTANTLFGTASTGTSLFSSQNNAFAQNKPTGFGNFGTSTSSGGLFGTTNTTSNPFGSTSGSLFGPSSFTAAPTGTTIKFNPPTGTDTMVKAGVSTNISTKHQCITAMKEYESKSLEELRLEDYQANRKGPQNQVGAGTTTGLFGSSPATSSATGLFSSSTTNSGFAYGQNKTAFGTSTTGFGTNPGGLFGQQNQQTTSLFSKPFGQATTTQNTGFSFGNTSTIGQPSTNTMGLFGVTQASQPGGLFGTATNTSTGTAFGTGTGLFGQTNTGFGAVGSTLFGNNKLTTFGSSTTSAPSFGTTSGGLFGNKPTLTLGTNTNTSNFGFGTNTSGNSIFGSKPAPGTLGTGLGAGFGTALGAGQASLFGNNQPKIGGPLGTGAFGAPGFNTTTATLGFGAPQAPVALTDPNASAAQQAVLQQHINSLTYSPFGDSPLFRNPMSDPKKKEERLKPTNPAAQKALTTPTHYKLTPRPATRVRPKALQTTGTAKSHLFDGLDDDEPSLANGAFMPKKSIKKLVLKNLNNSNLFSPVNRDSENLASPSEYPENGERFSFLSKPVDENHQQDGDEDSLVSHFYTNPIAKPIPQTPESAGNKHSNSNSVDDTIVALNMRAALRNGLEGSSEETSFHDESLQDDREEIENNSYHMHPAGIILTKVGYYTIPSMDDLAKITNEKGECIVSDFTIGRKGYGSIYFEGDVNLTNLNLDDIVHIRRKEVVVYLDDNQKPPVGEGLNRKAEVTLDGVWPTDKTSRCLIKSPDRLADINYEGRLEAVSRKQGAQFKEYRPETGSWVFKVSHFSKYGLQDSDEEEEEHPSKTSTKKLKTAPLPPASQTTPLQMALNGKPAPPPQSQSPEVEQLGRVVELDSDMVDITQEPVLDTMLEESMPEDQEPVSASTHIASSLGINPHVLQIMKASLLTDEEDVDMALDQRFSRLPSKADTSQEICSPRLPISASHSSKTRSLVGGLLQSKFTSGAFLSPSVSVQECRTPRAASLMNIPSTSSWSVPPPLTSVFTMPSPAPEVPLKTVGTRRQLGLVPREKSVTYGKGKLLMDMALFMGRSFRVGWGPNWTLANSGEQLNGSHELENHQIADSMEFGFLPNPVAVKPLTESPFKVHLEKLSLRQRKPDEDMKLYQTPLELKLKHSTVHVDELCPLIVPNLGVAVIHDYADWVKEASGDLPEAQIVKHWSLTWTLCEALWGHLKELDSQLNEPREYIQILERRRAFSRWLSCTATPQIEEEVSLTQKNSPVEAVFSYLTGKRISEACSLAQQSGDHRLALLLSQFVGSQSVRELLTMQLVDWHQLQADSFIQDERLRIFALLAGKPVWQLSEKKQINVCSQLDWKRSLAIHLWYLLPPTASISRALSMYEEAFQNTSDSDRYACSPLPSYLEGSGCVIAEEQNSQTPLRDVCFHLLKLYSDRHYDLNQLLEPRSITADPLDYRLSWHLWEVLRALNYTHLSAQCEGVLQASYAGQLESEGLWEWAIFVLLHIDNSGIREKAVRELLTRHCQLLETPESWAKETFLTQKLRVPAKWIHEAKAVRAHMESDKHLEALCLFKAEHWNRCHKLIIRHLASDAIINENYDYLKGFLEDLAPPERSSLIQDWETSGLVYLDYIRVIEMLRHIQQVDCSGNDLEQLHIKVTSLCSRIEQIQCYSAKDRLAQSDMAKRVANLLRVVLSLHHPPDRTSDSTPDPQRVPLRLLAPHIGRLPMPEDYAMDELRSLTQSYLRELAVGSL
T5 sequence (P30086 whole entry): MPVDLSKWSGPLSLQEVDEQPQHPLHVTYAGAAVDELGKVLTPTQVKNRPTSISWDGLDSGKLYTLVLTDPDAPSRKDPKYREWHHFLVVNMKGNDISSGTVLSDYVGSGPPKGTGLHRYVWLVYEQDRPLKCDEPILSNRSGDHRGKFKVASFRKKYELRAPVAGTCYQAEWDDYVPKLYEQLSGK
T3 sequence (Q96P70 whole entry): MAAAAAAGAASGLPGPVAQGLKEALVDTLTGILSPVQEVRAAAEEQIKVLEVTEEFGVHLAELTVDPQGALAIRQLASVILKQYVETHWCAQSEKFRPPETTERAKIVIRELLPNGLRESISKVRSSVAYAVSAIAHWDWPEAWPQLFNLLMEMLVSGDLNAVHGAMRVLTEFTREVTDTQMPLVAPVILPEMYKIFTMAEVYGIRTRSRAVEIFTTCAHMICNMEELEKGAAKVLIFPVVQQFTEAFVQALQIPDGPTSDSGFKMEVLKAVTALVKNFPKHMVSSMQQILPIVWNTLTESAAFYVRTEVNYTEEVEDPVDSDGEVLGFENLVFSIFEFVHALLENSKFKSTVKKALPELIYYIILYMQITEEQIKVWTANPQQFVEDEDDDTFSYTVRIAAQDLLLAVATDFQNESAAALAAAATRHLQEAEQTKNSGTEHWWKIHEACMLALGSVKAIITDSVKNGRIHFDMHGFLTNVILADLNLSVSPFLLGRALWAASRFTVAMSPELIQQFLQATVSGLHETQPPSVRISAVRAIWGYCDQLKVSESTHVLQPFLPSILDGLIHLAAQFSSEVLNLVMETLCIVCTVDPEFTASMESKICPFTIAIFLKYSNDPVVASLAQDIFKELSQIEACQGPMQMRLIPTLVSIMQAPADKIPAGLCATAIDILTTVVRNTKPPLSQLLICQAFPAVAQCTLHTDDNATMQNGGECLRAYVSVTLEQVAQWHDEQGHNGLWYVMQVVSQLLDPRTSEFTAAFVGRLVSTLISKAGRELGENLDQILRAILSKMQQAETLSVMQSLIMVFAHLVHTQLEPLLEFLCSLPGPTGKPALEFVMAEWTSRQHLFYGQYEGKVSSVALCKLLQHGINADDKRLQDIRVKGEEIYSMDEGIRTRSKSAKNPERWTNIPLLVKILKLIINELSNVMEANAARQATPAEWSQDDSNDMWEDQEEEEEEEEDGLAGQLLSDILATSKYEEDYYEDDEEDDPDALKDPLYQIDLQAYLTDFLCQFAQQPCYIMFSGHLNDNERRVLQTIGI

Compound	fold changes relative to vehicle control ([1]; HeLa, protein NUP98)	fold changes relative to vehicle control ([2]; HeLa, captured protein CPS1)	fold changes relative to vehicle control ([3]; HeLa, protein IPO9)	fold changes relative to vehicle control ([4]; HeLa, captured protein TAP2)	fold changes relative to vehicle control ([5]; HeLa, protein PEBP1)	fold changes relative to vehicle control ([6]; protein PDXK, HeLa)	fold changes relative to vehicle control ([7]; protein DHX15, HeLa)	fold changes relative to vehicle control ([1]; captured protein NUP98, HeLa)	fold changes relative to vehicle control ([2]; protein CPS1, HeLa)	fold changes relative to vehicle control ([3]; captured protein IPO9, HeLa)	fold changes relative to vehicle control ([4]; captured protein TAP2, HeLa)	fold changes relative to vehicle control ([5]; protein PEBP1, HeLa)	fold changes relative to vehicle control ([6]; HeLa, protein PDXK)	fold changes relative to vehicle control ([7]; captured protein DHX15, HeLa)	also measured
Nc1nc2c(c(=O)[nH]1)N(C=O)C(CNc1ccc(C(=O)N[C@@H](CCC(=O)O)C(=O)O)cc1)CN2 (stereo partly shown) [LEU, leucovorin]	0.93	1.13	0.87	1.11	0.89	1.09	0.74								
Nc1nc2[nH]cc(CCc3ccc(C(=O)N[C@@H](CCC(=O)O)C(=O)O)cc3)c2c(=O)[nH]1 [PTX, pemetrexed]															fold changes relative to vehicle control [1]: 1; fold changes relative to vehicle control [2]: 1.08; fold changes relative to vehicle control [3]: 0.91; fold changes relative to vehicle control [4]: 0.89; fold changes relative to vehicle control [5]: 1.14; fold changes relative to vehicle control [6]: 0.83; fold changes relative to vehicle control [7]: 0.71
CCCCCCOc1ccc(Cc2cnc(N)nc2N)cc1 [compound 1]								1.05	1.27	0.89	1.01	1.23	1.03	0.71	
CCCCCCOc1cccc(Cc2cnc(N)nc2N)c1 [compound 2]								1.11	1.61	1.14	0.98	1.9	0.97	0.9	
Nc1nc2cccc(-c3ccccc3)c2n1Cc1ccc(Cl)c(Cl)c1 [compound 3]								1.06	1.09	1.07	1.06	1.08	0.9	0.62	
NCCOCCOCC(=O)Nc1nc2ncc(CNc3ccc(C(=O)NC(CCC(=O)O)C(=O)O)cc3)nc2c(=O)[nH]1 (stereo not shown) [compound 6]	1.21	1.27	1	1.18	1.42	0.87	0.83								
NCCCNc1ccc(C(=O)NC(CCC(=O)O)C(=O)O)cc1 (stereo not shown) [compound 7]	1.05	1.05	0.94	1.09	1.07	1.03	0.75								
